Experimental data published in patent publication US20170112732A1, “ENCAPSULATION OF ORAL CARE ACTIVE AGENTS” (KONINKLIJKE PHILIPS N.V., priority 2014, published 2017).
Where a name gives a salt, the structure may show the parent alone.

Assay: Determination of ethyl formate solubility in paraffin oil (GC-FID)
Type: physicochemical
Protocol: 12 mL of ethyl formate (0.917 g/cm^3) were added to 18 mL of liquid paraffin (density, 0.830 g/cm^3) in a glass bottle. The bottle was then closed with butyl rubber stopper and aluminium crimp seal and seal with a hand crimper before vigorously mixing the system with a vortex for 2 min. The bottle containing the mixture was immersed in a temperature-controlled jacketed beaker for 24 h and to allow the formation of two distinct layers, an upper layer consisting of ethyl formate and Liquid paraffin and the lower layer with only ethyl formate. Samples were withdrawn from the upper layer with a needle, filtered and analysed using a gas chromatography with flame ionisation detector (GC-FID) under the conditions presented in table 2. The quantity of ethyl formate in the mixture was inferred from the calibration curve obtained with different concentration of ethyl formate diluted with anhydrous ethanol.

CCOC=O [Ethyl formate, ethyl formate]
Ethyl formate solubility in liquid paraffin (5 ° C.): 13.4 % v/v
Ethyl formate solubility in liquid paraffin (10 ° C.): 16.3 % v/v
Ethyl formate solubility in liquid paraffin (20 ° C.): 26.8 % v/v
Ethyl formate solubility in liquid paraffin (30 ° C.): 38.9 % v/v
